Measured values as given in PubChem BioAssay (NCI).
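These data come from cells grown in 96-well plates and exposed to compound for 48 hours at five concentrations. TGI is the concentration that stops growth completely.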 Residues, ends and D or L forms follow the SMILES beside them. *: point of attachment. Boc = CC(C)(C)OC(=O)*; OBn = c1ccc(CO*)cc1

System: 786-0 renal
Test: growth of human tumour cells (NCI), 48 h

| Compound | TGI |
| --- | --- |
| Cc1cc(Nc2ccc(S(=O)(=O)O)cc2)c2ccccc2n1 | > 100 µM |
| O=c1c(-c2ccccc2)c2n(c3ccccc13)CCN2 | > 100 µM |
| C=CCN1CCN([C@H](c2ccc(C(=O)N(CC)CC)cc2)c2cccc(OC)c2)CC1 | > 25 µM |
| O=C1C(Cl)=C(N2C(=O)CCC2=O)C(=O)c2ccccc21 | 37.9 µM |
| CC(C)CC(NC(=O)OC(C)(C)C)C(=O)NC(CC(=O)OCc1ccccc1)C(N)=O (stereo not drawn) (Boc-Leu-Asp(OBn)-NH2; configuration not given here) | > 100 µM |

System: A498 renal
Test: growth of human tumour cells (NCI), 48 h

| Compound | TGI |
| --- | --- |
| Cc1cc(Nc2ccc(S(=O)(=O)O)cc2)c2ccccc2n1 | > 100 µM |
| O=c1c(-c2ccccc2)c2n(c3ccccc13)CCN2 | > 100 µM |
| C=CCN1CCN([C@H](c2ccc(C(=O)N(CC)CC)cc2)c2cccc(OC)c2)CC1 | > 25 µM |
| O=C1C(Cl)=C(N2C(=O)CCC2=O)C(=O)c2ccccc21 | > 100 µM |
| CC(C)CC(NC(=O)OC(C)(C)C)C(=O)NC(CC(=O)OCc1ccccc1)C(N)=O (stereo not drawn) (Boc-Leu-Asp(OBn)-NH2; configuration not given here) | > 100 µM |

System: A549 NSCLC
Test: growth of human tumour cells (NCI), 48 h

| Compound | TGI |
| --- | --- |
| Cc1cc(Nc2ccc(S(=O)(=O)O)cc2)c2ccccc2n1 | > 100 µM |
| O=c1c(-c2ccccc2)c2n(c3ccccc13)CCN2 | > 100 µM |
| C=CCN1CCN([C@H](c2ccc(C(=O)N(CC)CC)cc2)c2cccc(OC)c2)CC1 | > 25 µM |
| O=C1C(Cl)=C(N2C(=O)CCC2=O)C(=O)c2ccccc21 | > 100 µM |
| CC(C)CC(NC(=O)OC(C)(C)C)C(=O)NC(CC(=O)OCc1ccccc1)C(N)=O (stereo not drawn) (Boc-Leu-Asp(OBn)-NH2; configuration not given here) | > 100 µM |

System: ACHN renal
Test: growth of human tumour cells (NCI), 48 h

| Compound | TGI |
| --- | --- |
| Cc1cc(Nc2ccc(S(=O)(=O)O)cc2)c2ccccc2n1 | > 100 µM |
| O=c1c(-c2ccccc2)c2n(c3ccccc13)CCN2 | > 100 µM |
| C=CCN1CCN([C@H](c2ccc(C(=O)N(CC)CC)cc2)c2cccc(OC)c2)CC1 | > 25 µM |
| O=C1C(Cl)=C(N2C(=O)CCC2=O)C(=O)c2ccccc21 | 29.1 µM |
| CC(C)CC(NC(=O)OC(C)(C)C)C(=O)NC(CC(=O)OCc1ccccc1)C(N)=O (stereo not drawn) (Boc-Leu-Asp(OBn)-NH2; configuration not given here) | > 100 µM |

System: BT-549 breast
Test: growth of human tumour cells (NCI), 48 h

| Compound | TGI |
| --- | --- |
| Cc1cc(Nc2ccc(S(=O)(=O)O)cc2)c2ccccc2n1 | > 100 µM |
| O=c1c(-c2ccccc2)c2n(c3ccccc13)CCN2 | > 100 µM |
| C=CCN1CCN([C@H](c2ccc(C(=O)N(CC)CC)cc2)c2cccc(OC)c2)CC1 | > 25 µM |
| O=C1C(Cl)=C(N2C(=O)CCC2=O)C(=O)c2ccccc21 | 37.3 µM |
| CC(C)CC(NC(=O)OC(C)(C)C)C(=O)NC(CC(=O)OCc1ccccc1)C(N)=O (stereo not drawn) (Boc-Leu-Asp(OBn)-NH2; configuration not given here) | > 100 µM |

System: CAKI-1 renal
Test: growth of human tumour cells (NCI), 48 h

| Compound | TGI |
| --- | --- |
| Cc1cc(Nc2ccc(S(=O)(=O)O)cc2)c2ccccc2n1 | > 100 µM |
| O=c1c(-c2ccccc2)c2n(c3ccccc13)CCN2 | > 100 µM |
| C=CCN1CCN([C@H](c2ccc(C(=O)N(CC)CC)cc2)c2cccc(OC)c2)CC1 | > 25 µM |
| O=C1C(Cl)=C(N2C(=O)CCC2=O)C(=O)c2ccccc21 | 38.1 µM |
| CC(C)CC(NC(=O)OC(C)(C)C)C(=O)NC(CC(=O)OCc1ccccc1)C(N)=O (stereo not drawn) (Boc-Leu-Asp(OBn)-NH2; configuration not given here) | > 100 µM |

System: CCRF-CEM leukemia
Test: growth of human tumour cells (NCI), 48 h

| Compound | TGI |
| --- | --- |
| Cc1cc(Nc2ccc(S(=O)(=O)O)cc2)c2ccccc2n1 | > 100 µM |
| O=c1c(-c2ccccc2)c2n(c3ccccc13)CCN2 | > 100 µM |
| O=C1C(Cl)=C(N2C(=O)CCC2=O)C(=O)c2ccccc21 | 21.8 µM |

System: COLO 205 colon
Test: growth of human tumour cells (NCI), 48 h

| Compound | TGI |
| --- | --- |
| Cc1cc(Nc2ccc(S(=O)(=O)O)cc2)c2ccccc2n1 | > 100 µM |
| O=c1c(-c2ccccc2)c2n(c3ccccc13)CCN2 | > 100 µM |
| C=CCN1CCN([C@H](c2ccc(C(=O)N(CC)CC)cc2)c2cccc(OC)c2)CC1 | > 25 µM |
| O=C1C(Cl)=C(N2C(=O)CCC2=O)C(=O)c2ccccc21 | 32.8 µM |
| CC(C)CC(NC(=O)OC(C)(C)C)C(=O)NC(CC(=O)OCc1ccccc1)C(N)=O (stereo not drawn) (Boc-Leu-Asp(OBn)-NH2; configuration not given here) | > 100 µM |

System: DU-145 prostate
Test: growth of human tumour cells (NCI), 48 h

| Compound | TGI |
| --- | --- |
| Cc1cc(Nc2ccc(S(=O)(=O)O)cc2)c2ccccc2n1 | > 100 µM |
| O=c1c(-c2ccccc2)c2n(c3ccccc13)CCN2 | > 100 µM |
| C=CCN1CCN([C@H](c2ccc(C(=O)N(CC)CC)cc2)c2cccc(OC)c2)CC1 | > 25 µM |
| O=C1C(Cl)=C(N2C(=O)CCC2=O)C(=O)c2ccccc21 | 95 µM |
| CC(C)CC(NC(=O)OC(C)(C)C)C(=O)NC(CC(=O)OCc1ccccc1)C(N)=O (stereo not drawn) (Boc-Leu-Asp(OBn)-NH2; configuration not given here) | > 100 µM |

System: EKVX NSCLC
Test: growth of human tumour cells (NCI), 48 h

| Compound | TGI |
| --- | --- |
| Cc1cc(Nc2ccc(S(=O)(=O)O)cc2)c2ccccc2n1 | > 100 µM |
| O=c1c(-c2ccccc2)c2n(c3ccccc13)CCN2 | > 100 µM |
| C=CCN1CCN([C@H](c2ccc(C(=O)N(CC)CC)cc2)c2cccc(OC)c2)CC1 | > 25 µM |
| O=C1C(Cl)=C(N2C(=O)CCC2=O)C(=O)c2ccccc21 | > 100 µM |
| CC(C)CC(NC(=O)OC(C)(C)C)C(=O)NC(CC(=O)OCc1ccccc1)C(N)=O (stereo not drawn) (Boc-Leu-Asp(OBn)-NH2; configuration not given here) | > 100 µM |

System: HCC-2998 colon
Test: growth of human tumour cells (NCI), 48 h

| Compound | TGI |
| --- | --- |
| Cc1cc(Nc2ccc(S(=O)(=O)O)cc2)c2ccccc2n1 | > 100 µM |
| O=c1c(-c2ccccc2)c2n(c3ccccc13)CCN2 | > 100 µM |
| O=C1C(Cl)=C(N2C(=O)CCC2=O)C(=O)c2ccccc21 | 60.3 µM |

System: HCT-116 colon
Test: growth of human tumour cells (NCI), 48 h

| Compound | TGI |
| --- | --- |
| Cc1cc(Nc2ccc(S(=O)(=O)O)cc2)c2ccccc2n1 | > 100 µM |
| O=c1c(-c2ccccc2)c2n(c3ccccc13)CCN2 | > 100 µM |
| C=CCN1CCN([C@H](c2ccc(C(=O)N(CC)CC)cc2)c2cccc(OC)c2)CC1 | > 25 µM |
| O=C1C(Cl)=C(N2C(=O)CCC2=O)C(=O)c2ccccc21 | 49.7 µM |
| CC(C)CC(NC(=O)OC(C)(C)C)C(=O)NC(CC(=O)OCc1ccccc1)C(N)=O (stereo not drawn) (Boc-Leu-Asp(OBn)-NH2; configuration not given here) | > 100 µM |

System: HCT-15 colon
Test: growth of human tumour cells (NCI), 48 h

| Compound | TGI |
| --- | --- |
| Cc1cc(Nc2ccc(S(=O)(=O)O)cc2)c2ccccc2n1 | > 100 µM |
| O=c1c(-c2ccccc2)c2n(c3ccccc13)CCN2 | > 100 µM |
| C=CCN1CCN([C@H](c2ccc(C(=O)N(CC)CC)cc2)c2cccc(OC)c2)CC1 | > 25 µM |
| O=C1C(Cl)=C(N2C(=O)CCC2=O)C(=O)c2ccccc21 | 27.2 µM |
| CC(C)CC(NC(=O)OC(C)(C)C)C(=O)NC(CC(=O)OCc1ccccc1)C(N)=O (stereo not drawn) (Boc-Leu-Asp(OBn)-NH2; configuration not given here) | > 100 µM |

System: HL-60(TB) leukemia
Test: growth of human tumour cells (NCI), 48 h

| Compound | TGI |
| --- | --- |
| Cc1cc(Nc2ccc(S(=O)(=O)O)cc2)c2ccccc2n1 | > 100 µM |
| O=c1c(-c2ccccc2)c2n(c3ccccc13)CCN2 | > 100 µM |
| C=CCN1CCN([C@H](c2ccc(C(=O)N(CC)CC)cc2)c2cccc(OC)c2)CC1 | > 25 µM |
| O=C1C(Cl)=C(N2C(=O)CCC2=O)C(=O)c2ccccc21 | 6.73 µM |

System: HOP-62 NSCLC
Test: growth of human tumour cells (NCI), 48 h

| Compound | TGI |
| --- | --- |
| Cc1cc(Nc2ccc(S(=O)(=O)O)cc2)c2ccccc2n1 | > 100 µM |
| O=c1c(-c2ccccc2)c2n(c3ccccc13)CCN2 | > 100 µM |
